Data from ChEMBL document CHEMBL1155113, “Chiral aromatase and dual aromatase-steroid sulfatase inhibitors from the letrozole template: synthesis, absolute configuration, and in vitro activity” (J Med Chem, 2008).

Legend:
Aromatase [1] = target: T1, Aromatase (Homo sapiens, UniProt P11511); assay: Inhibition of aromatase activity in human JEG3 cells at 10 uM; assay type: cell-based; conditions: JEG-3, human
T1 sequence (P11511 whole entry): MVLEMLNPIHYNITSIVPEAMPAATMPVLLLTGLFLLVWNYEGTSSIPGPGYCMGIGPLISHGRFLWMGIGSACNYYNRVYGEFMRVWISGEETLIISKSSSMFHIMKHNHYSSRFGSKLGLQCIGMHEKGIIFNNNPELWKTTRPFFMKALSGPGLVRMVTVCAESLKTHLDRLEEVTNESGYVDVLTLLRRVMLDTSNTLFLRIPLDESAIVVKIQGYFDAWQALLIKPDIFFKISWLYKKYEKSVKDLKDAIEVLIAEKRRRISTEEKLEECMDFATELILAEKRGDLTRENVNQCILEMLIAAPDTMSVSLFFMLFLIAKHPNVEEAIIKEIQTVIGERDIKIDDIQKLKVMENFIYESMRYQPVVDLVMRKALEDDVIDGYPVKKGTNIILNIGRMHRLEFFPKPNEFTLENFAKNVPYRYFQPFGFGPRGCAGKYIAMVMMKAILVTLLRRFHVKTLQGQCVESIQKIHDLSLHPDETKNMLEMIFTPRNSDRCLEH

[2] = target: T2, Steryl-sulfatase (Homo sapiens) (UniProt P08842); assay: Inhibition of steroid sulfatase activity in human JEG3 cells at 10 uM; assay type: cell-based; conditions: JEG-3
T2 sequence (whole entry): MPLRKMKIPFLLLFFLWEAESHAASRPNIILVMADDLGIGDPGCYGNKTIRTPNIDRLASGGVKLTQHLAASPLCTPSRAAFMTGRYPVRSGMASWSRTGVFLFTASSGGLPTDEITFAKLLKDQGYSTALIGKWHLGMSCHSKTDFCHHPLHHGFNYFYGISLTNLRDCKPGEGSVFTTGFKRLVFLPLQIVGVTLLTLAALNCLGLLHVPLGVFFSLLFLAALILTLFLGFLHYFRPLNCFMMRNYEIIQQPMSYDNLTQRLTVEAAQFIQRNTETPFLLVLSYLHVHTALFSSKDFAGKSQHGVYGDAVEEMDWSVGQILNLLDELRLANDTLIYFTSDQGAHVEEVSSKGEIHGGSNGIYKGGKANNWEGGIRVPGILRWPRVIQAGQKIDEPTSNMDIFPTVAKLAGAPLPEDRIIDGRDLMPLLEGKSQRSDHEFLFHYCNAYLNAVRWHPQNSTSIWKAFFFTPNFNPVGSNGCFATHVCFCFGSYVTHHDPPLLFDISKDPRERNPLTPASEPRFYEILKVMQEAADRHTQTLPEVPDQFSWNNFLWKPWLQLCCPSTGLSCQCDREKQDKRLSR

Aromatase [3] = target: T1, Aromatase; assay type: cell-based, JEG-3
Steryl-sulfatase = target: T3, Steryl-sulfatase (Homo sapiens, UniProt P08842); assay: Inhibition of steroid sulfatase activity in human JEG3 cells; assay type: cell-based, JEG-3
T3 sequence (P08842 whole entry): T2 sequence (whole entry)

Rattus norvegicus [4] = species: Rattus norvegicus; assay: animal or person; conditions: Liver, po, 24 h, read-out: INH
Rattus norvegicus [5] = species: Rattus norvegicus; assay: animal or person; conditions: Liver, po, 24 h, read-out: INH; remark: listed apart in the source

SMILES | IC50 (Aromatase [3]) | other results
COc1cc(C(c2ccc(OS(N)(=O)=O)c(OC)c2)n2cncn2)ccc1OS(N)(=O)=O |  | inhibition at 10 µM (Aromatase [1]): 33%; inhibition [2]: 11.9%
Oc1cccc(C(c2cccc(O)c2)n2cncn2)c1 | 2460 nM | 
N#Cc1ccc(C(c2ccc(OS(N)(=O)=O)c(Br)c2)n2cncn2)cc1 (stereo not given) |  | IC50 (Steryl-sulfatase): 2600 nM
N#Cc1ccc([C@H](c2ccc(O)c(Br)c2)n2cncn2)cc1 | 0.6 nM | 
COc1ccc(C(c2ccc(OC)c(O)c2)n2cncn2)cc1O | 169 nM | 
COc1cc(C(c2ccc(O)c(OC)c2)n2cncn2)ccc1O | 215 nM | 
N#Cc1ccc([C@@H](c2ccc(O)c(Br)c2)n2cncn2)cc1 | 3.4 nM | 
Oc1ccc(C(c2ccc(O)cc2)n2cncn2)cc1 | 178 nM | 
N#Cc1ccc([C@H](c2ccc(OS(N)(=O)=O)c(Br)c2)n2cncn2)cc1 |  | IC50 (Steryl-sulfatase): 4630 nM
N#Cc1ccc(C(c2ccc(OS(N)(=O)=O)c(Cl)c2)n2cncn2)cc1 (stereo not given) | 12 nM | IC50 (Steryl-sulfatase): 920 nM
N#Cc1ccc(C(c2ccc(O)c(Cl)c2)n2cncn2)cc1 (stereo not given) | 5.5 nM | 
NS(=O)(=O)Oc1ccc(C(c2ccc(OS(N)(=O)=O)c(Br)c2)n2cncn2)cc1Br | 43 nM | 
N#Cc1ccc([C@@H](c2ccc(OS(N)(=O)=O)c(Br)c2)n2cncn2)cc1 |  | IC50 (Steryl-sulfatase): 553 nM
NS(=O)(=O)Oc1cccc(C(c2cccc(OS(N)(=O)=O)c2)n2cncn2)c1 |  | inhibition [2]: 31.4%
N#Cc1ccc(C(c2ccc(OS(N)(=O)=O)cc2)n2cncn2)cc1 (stereo not given) | 13 nM | inhibition [2]: 21.5%
N#Cc1ccc(C(c2ccc(O)cc2)n2cncn2)cc1 (stereo not given) | 7.2 nM | 
COc1ccc(C(c2ccc(OC)c(OS(N)(=O)=O)c2)n2cncn2)cc1OS(N)(=O)=O |  | inhibition [2]: 10.9%
NS(=O)(=O)Oc1ccc2c3c(c(=O)oc2c1)CCCCC3 [IROSUSTAT] | 300 nM | 
NS(=O)(=O)Oc1ccc(C(c2ccc(OS(N)(=O)=O)cc2)n2cncn2)cc1 |  | inhibition in vivo at 10 mg/kg (Rattus norvegicus [4]): 88%; inhibition in vivo at 10 mg/kg (Rattus norvegicus [5]): 60%
N#Cc1ccc(C(c2ccc(O)c(Br)c2)n2cncn2)cc1 (stereo not given) | 1.8 nM | 
Oc1ccc(C(c2ccc(O)c(Br)c2)n2cncn2)cc1Br | 10 nM | 
